Like-named read-outs stand apart in the source and are kept apart here.
Experiments:
[1] = tested on: Plasmodium falciparum 3D7 (chloroquine-sensitive); test: In vitro antimalarial growth inhibition assay (SYBR green), 3D7; type: cell-based; settings: for EC50: Plasmodium falciparum
Experimental: The antimalarial growth inhibition assay was performed as described previously. […] Tested compounds were threefold diluted in triplicate with concentrations ranging from 20 – 0.001 µM/10 – 0.0005 µM. The parasites were incubated with the drug at 37 °C under mixed gas (5% O2, 5% CO2, and 90% N2) conditions for 48 h. DNA was released from the cultured parasite and stained with SYBR green dye. The plate was placed in the dark with gentle agitation for 1 h, and signals were read in a FLUOstar OPTIMA reader (BMG Labtech, Germany). Data from the microplate reader were analyzed as described previously[68] and plotted using Prism 9.0 software (GraphPad Software, Inc., San Diego, CA). Each in vitro experiment was performed in triplicate wells and repeated twice. Response Curves (CRCs) were plotted in GraphPad Prism (GraphPad Software, Inc.) with error bars representing the standard deviation of three replicate wells (Supplementary Fig. 10).

[2] = tested on: Plasmodium falciparum Dd2 (chloroquine-resistant); test: In vitro antimalarial growth inhibition assay (SYBR green), Dd2; type: cell-based; settings: for EC50: Plasmodium falciparum, read-out: In vitro activity EC50 ± SD P. falciparum Dd2; for Fold more potent than chloroquine, Dd2: Dd2, versus chloroquine
Experimental: The antimalarial growth inhibition assay was performed as described previously. Briefly, the Plasmodium falciparum Dd2 and 3D7 parasites were diluted to 0.75% parasitemia with 2% hematocrit, and 50 μL diluted parasites were added to each well in a 96-well plate containing 50 μL of properly diluted drugs. Tested compounds were threefold diluted in triplicate with concentrations ranging from 20 – 0.001 µM/10 – 0.0005 µM. The parasites were incubated with the drug at 37 °C under mixed gas (5% O2, 5% CO2, and 90% N2) conditions for 48 h. DNA was released from the cultured parasite and stained with SYBR green dye. The plate was placed in the dark with gentle agitation for 1 h, and signals were read in a FLUOstar OPTIMA reader (BMG Labtech, Germany). Data from the microplate reader were analyzed as described previously[68] and plotted using Prism 9.0 software (GraphPad Software, Inc., San Diego, CA). Each in vitro experiment was performed in triplicate wells and repeated twice. Response Curves (CRCs) were plotted in GraphPad Prism (GraphPad Software, Inc.) with error bars representing the standard deviation of three replicate wells (Supplementary Fig. 10).

[3] = CellTiter-Glo cell viability assay (cytotoxicity), HEK293; type: cell-based; settings: human, HEK293, 72 h treatment, read-out: In vitro cytotoxicity EC50 ± SD HEK293
Experimental: (§1) Cells were obtained from the following sources: HEK293 (ATCC, cat # CRL-1573), MOLT-4 (ATCC, cat # CRL-1582). Cell lines were routinely tested for Mycoplasma contamination with the MycoAlert PLUS Mycoplasma Detection Kit (Lonza Bioscience, cat # LT07) according to manufacturer protocol. Cell number and cell viability were measured using the Countess Automated Cell Counter (Invitrogen) using Trypan blue stain (Invitrogen, cat # T10282). Human embryonic kidney HEK293 cells were maintained in DMEM with high glucose and GlutaMAX (Gibco, cat # 10566016) supplemented with 10% HyClone Characterized Fetal Bovine Serum (Cytiva, cat # SH30071.03), and 100 µ mL^−1 Penicillin-Streptomycin (Gibco, cat # 15140122). Human T lymphoblast MOLT-4 cells were maintained in RPMI 1640 Medium (Gibco, cat # 11875093) supplemented with 10% HyClone Characterized Fetal Bovine Serum (Cytiva, cat # SH30071.03), 100 µ mL^−1 Penicillin-Streptomycin (Gibco, cat # 15140122), and 10 mM HEPES (Gibco, 15630080). Cells were cultured in incubators maintained at 37 °C with 5% CO2 and 95% relative humidity.
(§2) The CTG assay (Promega, cat # G7572) was used to quantify cellular ATP according to manufacturer protocols. The Multidrop Combi liquid dispenser (ThermoFisher) was used to dispense 4 µL of cells into white 1536-well microplates (Corning, cat # 7464) at a density of 1500 cells/well. Plated cells were incubated overnight. (−)-Premarineosin A (3) and derivatives were transferred into respective wells of each plate at 25 nL/well with the mosquito (SPT Labtech) in 16-pt, 1:3 titrations for a final concentration of 125 µM–8.71 pM for compounds with a high concentration of 20 mM, or 62.5 µM–4.36 pM for compounds with a high concentration of 10 mM. Controls were transferred into respective wells of each plate at 25 nL/well with the mosquito with a 16-pt, 1:2 titration of Digitonin for a final concentration of 125 µM–3.81 nM. The final concentration of DMSO was 0.58%. Cells were incubated for either 24, 48, and 72 h, after which point 3 µL/well of CTG was transferred to each plate with the BioRaptr 2.0 FRD (LetsGoRobotics). Plates were incubated for 10 min in the dark at ambient temperature for 10 min. Luminescence was measured using a ViewLux 1430Ultra HTS (PerkinElmer) with the following optical settings: exposure = 1 s, gain = high, speed = slow, binning = 2X. Dimethyl sulfoxide (“DMSO”; AMRESCO, cat # RGE-3070) was used as a vehicle control. Digitonin (Sigma-Aldrich, cat # D141) was prepared as a 20 mM stock solution in DMSO and stored at −30 °C for use as a cytotoxicity control. (−)-Premarineosin A (3) and derivatives were prepared at either 10 mM or 20 mM stock solutions in DMSO. Data were normalized to 125 µM Digitonin as −100% inhibition in a row-wise manner across the plate. Normalization was performed in Excel (Microsoft) and Concentration Response Curves (CRCs) were plotted in GraphPad Prism (GraphPad Software, Inc.) with error bars representing the standard deviation of four replicate wells (Supplementary Fig. 9).

[4] = CellTiter-Glo cell viability assay (cytotoxicity), MOLT4; type: cell-based; settings: human, MOLT4, 72 h treatment, read-out: In vitro cytotoxicity EC50 ± SD MOLT4
Experimental: as §1, §2

[5] = tested on: Plasmodium; parameters: method as in PMID 24575817, PMID 19007176; settings: cited from earlier work
[6] = 3D7 chloroquine-sensitive, 48 h treatment, read-out: In vitro activity EC50 ± SD P. falciparum 3D7
[7] = Dd2 chloroquine-resistant, 48 h treatment
[8] = 3D7, 48 h, read-out: In vitro activity EC50 ± SD P. falciparum 3D7
[9] = MOLT-4 T-cell leukemia (T lymphoblast) cells
[10] = 3D7 chloroquine-sensitive, 48 h treatment

Structure (SMILES) | EC50 [1, 6] [µM] | EC50 [2, 7] [µM] | EC50 [1, 8] [µM] | EC50 ([2]; DD2, 48 h) [µM] | EC50 at 72 h [3] [µM] | EC50 at 72 h [4] [µM] | further results
C[C@H]1[C@H](OC(=O)CCC(=O)O)O[C@@H]2O[C@@]3(C)CC[C@H]4[C@H](C)CC[C@@H]1[C@@]24OO3 [Artesunate, reference compound] | 0.024 ± 0.006 | 0.008 ± 0.002 | – | – | – | – | –
CCN(CC)CCCC(C)Nc1ccnc2cc(Cl)ccc12 (stereo not drawn) [Chloroquine, reference compound] | – | – | 0.041 ± 0.003 | 0.382 ± 0.022 | – | – | –
COC1=CC(c2ccc[nH]2)=N[C@@]12O[C@H](C)C[C@H]1CCCCCCCc3ccc([nH]3)[C@@H]12 [compound 3, (−)-premarineosin A] | 0.004 ± 0.0001 | 0.001 ± 0.0007 | – | – | 1.47 ± 0.427 | 1.06 ± 0.336 | Fold more potent than artesunate, 3D7 ([1]; 3D7, versus artesunate): 6 fold; Fold more potent than chloroquine, 3D7 ([1]; 3D7, versus chloroquine): over 10 fold; Fold more potent than artesunate, Dd2 ([2]; Dd2, versus artesunate): 8 fold; Fold more potent than chloroquine, Dd2 [2]: > 350 fold; Antimalarial activity in vitro [5]: single-digit nanomolar
COC1=CC(c2ccc[nH]2)=N[C@@]12O[C@H](C)C[C@H]1CCCCCCCc3[nH]c(cc3C(C)(C)c3cc4[nH]c3CCCCCCC[C@@H]3C[C@@H](C)O[C@@]5(N=C(c6ccc[nH]6)C=C5OC)[C@@H]43)[C@@H]12 [compound 4, gem-dimethyl-bridged premarineosin A] | – | – | 1.89 ± 0.243 | 1.24 ± 0.168 | 8.29 ± 1.66 | 2.26 ± 0.777 | –
COC1=CC(c2ccc[nH]2)=N[C@@]12O[C@H](C)C[C@H]1CCCCCCCc3[nH]c(cc3Cc3cc4[nH]c3CCCCCCC[C@@H]3C[C@@H](C)O[C@@]5(N=C(c6ccc[nH]6)C=C5OC)[C@@H]43)[C@@H]12 [compound 5, Methylene-bridged premarineosin A] | 1.39 ± 0.265 | 0.548 ± 0.076 | – | – | 8.31 ± 1.46 | 1.16 ± 0.094 | –
COC1=CC(c2ccc[nH]2)=N[C@@]12O[C@H](C)C[C@H]1CCCCCCCc3[nH]c(cc3C(C)(c3cc4[nH]c3CCCCCCC[C@@H]3C[C@@H](C)O[C@@]5(N=C(c6ccc[nH]6)C=C5OC)[C@@H]43)C(F)(F)F)[C@@H]12 [compound 6, Trifluoromethyl-bridged premarineosin A] | 5.07 ± 1 | 2.32 ± 0.448 | – | – | – | – | EC50 at 72 h ([3]; HEK293 embryonic kidney cells): 11 ± 2.15 µM; EC50 at 72 h [4, 9]: 6.51 ± 2.74 µM
COC1=CC(c2ccc[nH]2)=N[C@@]12O[C@H](C)C[C@H]1CCCCCCCc3[nH]c(cc3C(C)(O)C(F)(F)F)[C@@H]12 (stereo partly drawn) [compound 7, 12-trifluoropropanol premarineosin A] | 0.203 ± 0.01 | 0.087 ± 0.015 | – | – | – | – | In vitro activity EC50 ± SD P. falciparum 3D7 [1, 10]: sub-micromolar; In vitro activity EC50 ± SD P. falciparum Dd2 [2, 7]: sub-micromolar; EC50 at 72 h ([3]; HEK293 embryonic kidney cells): 4.21 ± 0.481 µM; EC50 at 72 h [4, 9]: 1.49 ± 0.388 µM
COC1=CC(c2ccc[nH]2)=N[C@@]12O[C@H](C)C[C@H]1CCCCCCCc3[nH]c(cc3C=O)[C@@H]12 [compound 8, 12-formyl premarineosin A] | 0.165 ± 0.055 | 0.222 ± 0.053 | – | – | 7.79 ± 1.62 | 6.63 ± 0.836 | In vitro activity EC50 ± SD P. falciparum 3D7 [1, 10]: sub-micromolar; In vitro activity EC50 ± SD P. falciparum Dd2 [2, 7]: sub-micromolar
COC1=CC(c2ccc[nH]2)=N[C@@]12O[C@H](C)C[C@H]1CCCCCCCc3[nH]c(cc3C(C)=O)[C@@H]12 [compound 9, 12-acetyl premarineosin A] | 0.178 ± 0.025 | 0.18 ± 0.014 | – | – | – | – | In vitro activity EC50 ± SD P. falciparum 3D7 [1, 10]: sub-micromolar; In vitro activity EC50 ± SD P. falciparum Dd2 [2, 7]: sub-micromolar; EC50 at 72 h ([3]; HEK293 embryonic kidney cells): 6.59 ± 3.02 µM; EC50 at 72 h [4, 9]: 3.67 ± 1.01 µM
COC1=CC(c2ccc[nH]2)=N[C@@]12O[C@H](C)C[C@H]1CCCCCCCc3[nH]c(cc3CO)[C@@H]12 [compound 10, 12-hydroxymethyl-premarineosin A] | 1.23 ± 0.53 | 0.704 ± 0.304 | – | – | 18.4 ± 6.7 | 19.7 ± 1.22 | –
COC1=CC(c2ccc(Br)[nH]2)=N[C@@]12O[C@H](C)C[C@H]1CCCCCCCc3ccc([nH]3)[C@@H]12 [compound 11, 1-bromo premarineosin A] | – | – | 0.473 ± 0.113 | 0.259 ± 0.024 | 19.2 ± 1.73 | 1.33 ± 0.691 | –
COC1=CC(c2ccc[nH]2)=N[C@@]12O[C@H](C)C[C@H]1CCCCCCCc3[nH]c(cc3Br)[C@@H]12 [compound 12, 12-bromo premarineosin A] | – | – | 0.002 | 0.022 ± 0.011 | 1.63 ± 0.184 | 0.48 ± 0.084 | EC50 ([1]; 3D7, read-out: EC50 against P. falciparum): < 0.005 µM; Fold more potent than chloroquine, Dd2 [2]: 17 fold

Reference: article PMC12680612, “Metabolic engineering and late-stage functionalization expand the chemical space of the antimalarial premarineosin A” (Communications Chemistry, 2025)
